These compounds were tested against TAAR1 (Mus musculus, UniProt Q923Y8) (assay: TAAR1 radioligand binding, membranes of stably transfected HEK293 cells (mouse)). Details: mouse/rat; cell not marked 'rat'; radioligand [3H]-rac-2-(1,2,3,4-tetrahydro-1-naphthyl)-2-imidazoline, 4° C.; read-out: Ki (μM) mouse/rat.
Outline: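 Competition binding on membranes from HEK293 cells stably expressing the TAAR1 species ortholog, in HEPES-NaOH pH 7.0 with 10 mM MgCl2 and 2 mM CaCl2, 30 min at 4° C with [3H]-rac-2-(1,2,3,4-tetrahydro-1-naphthyl)-2-imidazoline. Competitors 10 pM–30 μM, duplicates; non-specific binding with 10 μM unlabelled ligand; filtration and scintillation counting.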

Compound	Ki [µM]
CC(C[C@H]1COC(N)=N1)c1cccc(C(F)(F)F)c1 (stereo partly drawn) [Example 193, (S)-4-[2-(3-Trifluoromethyl-phenyl)-propyl]-4,5-dihydro-oxazol-2-ylamine]	0.0043
CCC(C[C@H]1COC(N)=N1)c1cccc(C(F)(F)F)c1 (stereo partly drawn) [Example 194, (S)-4-[2-(3-Trifluoromethyl-phenyl)-butyl]-4,5-dihydro-oxazol-2-ylamine]	0.0073
NC1=N[C@@H](CSc2ccccc2)CO1 [Example 195, (R)-4-Phenylsulfanylmethyl-4,5-dihydro-oxazol-2-ylamine]	0.0018
C[C@@]1(c2ccccc2F)COC(N)=N1 [Example 196, (R)-4-(2-Fluoro-phenyl)-4-methyl-4,5-dihydro-oxazol-2-ylamine]	0.0066
NC1=N[C@@H](c2cccc(Br)c2)CO1 [Example 198, (+)-(S)-4-(3-Bromo-phenyl)-4,5-dihydro-oxazol-2-ylamine]	0.002
NC1=N[C@@H](c2cc(Cl)cc(Cl)c2)CO1 [Example 201, (+)-(S)-4-(3,5-Dichloro-phenyl)-4,5-dihydro-oxazol-2-ylamine]	0.0002
CC(C[C@H]1COC(N)=N1)c1cc(F)cc(F)c1 (stereo partly drawn) [Example 202, (S)-4-[2-(3,5-Difluoro-phenyl)-propyl]-4,5-dihydro-oxazol-2-ylamine]	0.0017
CCC(C[C@H]1COC(N)=N1)c1cc(F)cc(F)c1 (stereo partly drawn) [Example 203, (S)-4-[2-(3,5-Difluoro-phenyl)-butyl]-4,5-dihydro-oxazol-2-ylamine]	0.0039
C[C@]1(c2ccc(F)cc2F)COC(N)=N1 [Example 206, (S)-4-(2,4-Difluoro-phenyl)-4-methyl-4,5-dihydro-oxazol-2-ylamine]	0.0032
CCC(C[C@H]1COC(N)=N1)c1ccc(F)cc1 (stereo partly drawn) [Example 210, (S)-4-[2-(4-Fluoro-phenyl)-butyl]-4,5-dihydro-oxazol-2-ylamine]	0.0014
CCC(C[C@H]1COC(N)=N1)c1ccc(F)c(F)c1 (stereo partly drawn) [Example 211, (S)-4-[2-(3,4-Difluoro-phenyl)-butyl]-4,5-dihydro-oxazol-2-ylamine]	0.0024
NC1=N[C@@H](CCc2cccc(C(F)(F)F)n2)CO1 [Example 212, (S)-4-[2-(6-Trifluoromethyl-pyridin-2-yl)-ethyl]-4,5-dihydro-oxazol-2-ylamine]	0.0068
NC1=N[C@@H](COc2ccc(F)cc2)CO1 [Example 213, (S)-4-(4-Fluoro-phenoxymethyl)-4,5-dihydro-oxazol-2-ylamine]	0.003
C[C@]1(c2ccc(C(F)(F)F)cc2F)COC(N)=N1 [Example 215, (S)-4-(2-Fluoro-4-trifluoromethyl-phenyl)-4-methyl-4,5-dihydro-oxazol-2-ylamine]	0.0024
NC1=N[C@@H](COc2ccc(Cl)cc2)CO1 [Example 216, (S)-4-(4-Chloro-phenoxymethyl)-4,5-dihydro-oxazol-2-ylamine]	0.002
CC(C[C@H]1COC(N)=N1)c1ccccc1F (stereo partly drawn) [Example 217, (S)-4-[2-(2-Fluoro-phenyl)-propyl]-4,5-dihydro-oxazol-2-ylamine]	0.0015
C[C@]1(c2cccc(C(F)(F)F)c2)COC(N)=N1 [Example 219, (S)-4-Methyl-4-(3-trifluoromethyl-phenyl)-4,5-dihydro-oxazol-2-ylamine]	0.0009
Cc1cc(CC[C@H]2COC(N)=N2)ccn1 [Example 220, (S)-4-[2-(2-Methyl-pyridin-4-yl)-ethyl]-4,5-dihydro-oxazol-2-ylamine]	0.0084
CC(C[C@H]1COC(N)=N1)c1ccc(Cl)c(Cl)c1 (stereo partly drawn) [Example 221, (S)-4-[2-(3,4-Dichloro-phenyl)-propyl]-4,5-dihydro-oxazol-2-ylamine]	0.0022
CCC(C[C@H]1COC(N)=N1)c1ccc(Cl)c(Cl)c1 (stereo partly drawn) [Example 222, (S)-4-[2-(3,4-Dichloro-phenyl)-butyl]-4,5-dihydro-oxazol-2-ylamine]	0.0048
CCC(C[C@H]1COC(N)=N1)c1ccccc1F (stereo partly drawn) [Example 223, (S)-4-[2-(2-Fluoro-phenyl)-butyl]-4,5-dihydro-oxazol-2-ylamine]	0.0059
C[C@]1(CCc2ccccc2Cl)COC(N)=N1 [Example 228, (S)-4-[2-(2-Chloro-phenyl)-ethyl]-4-methyl-4,5-dihydro-oxazol-2-ylamine]	0.004
C[C@]1(c2ccc(Br)cc2)COC(N)=N1 [Example 231, (S)-4-(4-Bromo-phenyl)-4-methyl-4,5-dihydro-oxazol-2-ylamine]	0.0025
NC1=N[C@@H](CCc2cccc(Cl)c2)CO1 [Example 232, (S)-4-[2-(3-Chloro-phenyl)-ethyl]-4,5-dihydro-oxazol-2-ylamine]	0.0006
C[C@]1(c2ccc(Cl)c(F)c2)COC(N)=N1 [Example 236, (S)-4-(4-Chloro-3-fluoro-phenyl)-4-methyl-4,5-dihydro-oxazol-2-ylamine]	0.002

Compound	Ki [µM]
NC1=N[C@@H](c2ccc(Cl)cc2C(F)(F)F)CO1 [Example 238, (+)-(S)-4-(4-Chloro-2-trifluoromethyl-phenyl)-4,5-dihydro-oxazol-2-ylamine]	0.003
COc1ccc([C@H]2COC(N)=N2)c(C(F)(F)F)c1 [Example 240, (+)-(S)-4-(4-Methoxy-2-trifluoromethyl-phenyl)-4,5-dihydro-oxazol-2-ylamine]	0.0032
NC1=N[C@@H](c2cc(Cl)c(Cl)cc2C(F)(F)F)CO1 [Example 242, (+)-(S)-4-(4,5-Dichloro-2-trifluoromethyl-phenyl)-4,5-dihydro-oxazol-2-ylamine]	0.0072
NC1=N[C@H](c2cc(Cl)c(Cl)cc2C(F)(F)F)CO1 [Example 243, (−)-(R)-4-(4,5-Dichloro-2-trifluoromethyl-phenyl)-4,5-dihydro-oxazol-2-ylamine]	0.0094
C[C@]1(CCc2ccc(Cl)cc2)COC(N)=N1 [Example 244, (S)-4-[2-(4-Chloro-phenyl)-ethyl]-4-methyl-4,5-dihydro-oxazol-2-ylamine]	0.0057
C[C@]1(CCc2cccc(Cl)c2)COC(N)=N1 [Example 246, (S)-4-[2-(3-Chloro-phenyl)-ethyl]-4-methyl-4,5-dihydro-oxazol-2-ylamine]	0.0055
NC1=N[C@@H](c2ccc(F)cc2C(F)(F)F)CO1 [Example 248, (+)-(S)-4-(4-Fluoro-2-trifluoromethyl-phenyl)-4,5-dihydro-oxazol-2-ylamine]	0.0029
C[C@]1(CCc2ccc(F)cc2)COC(N)=N1 [Example 255, (S)-4-[2-(4-Fluoro-phenyl)-ethyl]-4-methyl-4,5-dihydro-oxazol-2-ylamine]	0.0074
NC1=N[C@@H](CCc2ccc(Cl)cc2)CO1 [Example 256, (S)-4-[2-(4-Chloro-phenyl)-ethyl]-4,5-dihydro-oxazol-2-ylamine]	0.0006
NC1=N[C@@H](CC2(c3ccc(Cl)cc3)CC2)CO1 [Example 257, (S)-4-[1-(4-Chloro-phenyl)-cyclopropylmethyl]-4,5-dihydro-oxazol-2-ylamine]	0.0074
NC1=N[C@@H](c2cc(F)ccc2C(F)(F)F)CO1 [Example 259, (+)-(S)-4-(5-Fluoro-2-trifluoromethyl-phenyl)-4,5-dihydro-oxazol-2-ylamine]	0.0088
NC1=N[C@@H](c2ccccc2Br)CO1 [Example 265, (+)-(S)-4-(2-Bromo-phenyl)-4,5-dihydro-oxazol-2-ylamine]	0.0009
C[C@]1(c2cc(F)cc(Cl)c2)COC(N)=N1 [Example 266, (S)-4-(3-Chloro-5-fluoro-phenyl)-4-methyl-4,5-dihydro-oxazol-2-ylamine]	0.0016
NC1=N[C@@H](CCc2ccccc2Cl)CO1 [Example 267, (S)-4-[2-(2-Chloro-phenyl)-ethyl]-4,5-dihydro-oxazol-2-ylamine]	0.0011
C[C@]1(c2cc(Cl)ccc2F)COC(N)=N1 [Example 270, (S)-4-(5-Chloro-2-fluoro-phenyl)-4-methyl-4,5-dihydro-oxazol-2-ylamine]	0.0016
C[C@]1(c2ccc(F)c(Cl)c2)COC(N)=N1 [Example 277, (S)-4-(3-chloro-4-fluoro-phenyl)-4-methyl-4,5-dihydro-oxazol-2-ylamine]	0.0016
C[C@]1(c2cc(F)c(Cl)cc2F)COC(N)=N1 [Example 289, (S)-4-(4-Chloro-2,5-difluoro-phenyl)-4-methyl-4,5-dihydro-oxazol-2-ylamine]	0.0017
CC[C@@H](C[C@H]1COC(N)=N1)c1ccccc1 [Example 292, (S)-4-((S)-2-Phenyl-butyl)-4,5-dihydro-oxazol-2-ylamine]	0.0035
CC[C@H](C[C@H]1COC(N)=N1)c1ccccc1 [Example 293, (S)-4-((R)-2-Phenyl-butyl)-4,5-dihydro-oxazol-2-ylamine]	0.0062
NC1=N[C@H](c2ccc(Cl)cc2Cl)CO1 [Example 295, (−)-(R)-4-(2,4-Dichloro-phenyl)-4,5-dihydro-oxazol-2-ylamine]	0.0082
NC1=N[C@@H](c2ccc(Cl)cc2Cl)CO1 [Example 296, (+)-(S)-4-(2,4-Dichloro-phenyl)-4,5-dihydro-oxazol-2-ylamine]	0.0004
NC1=N[C@@H](c2cc(Cl)ccc2Cl)CO1 [Example 298, (+)-(S)-4-(2,5-Dichloro-phenyl)-4,5-dihydro-oxazol-2-ylamine]	0.0004
NC1=N[C@@H](c2ccc(F)c(F)c2F)CO1 [Example 301, (+)-(S)-4-(2,3,4-Trifluoro-phenyl)-4,5-dihydro-oxazol-2-ylamine]	0.0023
NC1=N[C@@H](CCc2c(F)cccc2Cl)CO1 [Example 303, (S)-4-[2-(2-Chloro-6-fluoro-phenyl)-ethyl]-4,5-dihydro-oxazol-2-ylamine]	0.0011
C[C@]1(CCc2ccc(Cl)cc2Cl)COC(N)=N1 [Example 304, (S)-4-[2-(2,4-Dichloro-phenyl)-ethyl]-4-methyl-4,5-dihydro-oxazol-2-ylamine]	0.0033
